Measured values from patent US20230085307A1, “PYRIDAZINONE COMPOUND AND HERBICIDE” (NISSAN CHEMICAL CORPORATION, priority 2019, published 2023).

Key:
late watergrass = experiment: Test Example 2: herbicidal activity, application during weed generation under submerged conditions (Table 17, symbol A); type: in vivo, late watergrass (Echinochloa oryzicola); conditions: AAH 320 g/ha; application during weed generation, submerged conditions
In short: (§1)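 Herbicide emulsion, diluted with water to the chosen amount, is applied onto 4 cm floodwater over alluvial soil where the weeds were co-sown and raised at 25–30° C. Application timing: 1–2 leaves. Assessment: three weeks afterwards.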

Japanese bulrush = experiment: Test Example 2: herbicidal activity, application during weed generation under submerged conditions (Table 17, symbol B); type: in vivo, Japanese bulrush (Schoenoplectus juncoides); conditions: AAH 320 g/ha; application during weed generation, submerged conditions
In short: as §1

oval-leafed pondweed = experiment: Test Example 2: herbicidal activity, application during weed generation under submerged conditions (Table 17, symbol C); type: in vivo, oval-leafed pondweed (Monochoria vaginalis); conditions: AAH 320 g/ha; application during weed generation, submerged conditions
In short: as §1

southern crabgrass = experiment: Test Example 4: herbicidal effect by soil treatment (Table 19, symbol F); type: in vivo, southern crabgrass (Digitaria ciliaris); conditions: for herbicidal effect rating, F: southern crabgrass: 320 g/ha
In short: (§2)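 Three weeks of greenhouse growth at 25° C. to 30° C. followed a uniform surface spray of water-diluted emulsion at a predetermined herbicide amount. Seeds had been sown beforehand under about 1.5 cm of sterilized diluvial soil. Grading followed criteria set out in an earlier test.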

green foxtail = experiment: Test Example 4: herbicidal effect by soil treatment (Table 19, symbol G); type: in vivo, green foxtail (Setaria viridis); conditions: for herbicidal effect rating, G: green foxtail: 320 g/ha
In short: as §2

barnyard grass [1] = experiment: Test Example 4: herbicidal effect by soil treatment (Table 19, symbol H); type: in vivo, barnyard grass (Echinochloa crus-galli); conditions: for herbicidal effect rating, H: barnyard grass: 320 g/ha
In short: as §2

wild oat = experiment: Test Example 4: herbicidal effect by soil treatment (Table 19, symbol I); type: in vivo, wild oat (Avena fatua); conditions: for herbicidal effect rating, I: wild oat: 320 g/ha
In short: as §2

blackgrass = experiment: Test Example 4: herbicidal effect by soil treatment (Table 19, symbol J); type: in vivo, blackgrass (Alopecurus myosuroides); conditions: for herbicidal effect rating, J: blackgrass: 320 g/ha
In short: as §2

velvetleaf = experiment: Test Example 4: herbicidal effect by soil treatment (Table 19, symbol M); type: in vivo, velvetleaf (Abutilon theophrasti); conditions: for herbicidal effect rating, M: velvetleaf: 320 g/ha
In short: as §2

redroot pigweed [2] = experiment: Test Example 4: herbicidal effect by soil treatment (Table 19, symbol N); type: in vivo, redroot pigweed (Amaranthus retroflexus); conditions: for herbicidal effect rating, N: redroot pigweed: 320 g/ha
In short: as §2

persian speedwell [3] = experiment: Test Example 4: herbicidal effect by soil treatment (Table 19, symbol R); type: in vivo, Persian speedwell (Veronica persica); conditions: for herbicidal effect rating, R: persian speedwell: 320 g/ha
In short: as §2

barnyard grass [4] = experiment: Test Example 5: herbicidal effect by foliage application, plastic box (Table 20, symbol H); type: in vivo, barnyard grass (Echinochloa crus-galli); conditions: foliage application; for H: barnyard grass, herbicidal effect (criteria 0-5): AAH 320 g/ha
In short: (§3)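 Plants sown in sterilized diluvial soil and grown 14 days in a greenhouse at 25° C to 30° C, then sprayed on the foliage with the compound's emulsion diluted in water to a predetermined herbicide amount. Injury to weeds and crops scored three weeks after application on a visual rating scale.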

windgrass = experiment: Test Example 5: herbicidal effect by foliage application, plastic box (Table 20, symbol L); type: in vivo, windgrass (Apera spica-venti); conditions: foliage application; for L: windgrass, herbicidal effect (criteria 0-5): AAH 320 g/ha
In short: as §3

redroot pigweed [5] = experiment: Test Example 5: herbicidal effect by foliage application, plastic box (Table 20, symbol N); type: in vivo, redroot pigweed (Amaranthus retroflexus); conditions: foliage application, evaluated three weeks after application; for N: redroot pigweed, herbicidal effect (criteria 0-5): AAH 320 g/ha
In short: as §3

chickweed = experiment: Test Example 5: herbicidal effect by foliage application, plastic box (Table 20, symbol P); type: in vivo, common chickweed (Stellaria media); conditions: foliage application, evaluated three weeks after application; for P: chickweed, herbicidal effect (criteria 0-5): AAH 320 g/ha
In short: as §3

persian speedwell [6] = experiment: Test Example 5: herbicidal effect by foliage application, plastic box (Table 20, symbol R); type: in vivo, Persian speedwell (Veronica persica); conditions: foliage application; for R: persian speedwell, herbicidal effect (criteria 0-5): AAH 320 g/ha
In short: as §3

[7] = amount of applied herbicide 320 g/ha
[8] = evaluated three weeks after application
[9] = 320 g/ha, evaluated three weeks after application
[10] = 320 g/ha, 3 weeks after application

Compound	herbicidal effect rating, A: late watergrass (late watergrass)	herbicidal effect rating, B: Japanese bulrush (Japanese bulrush)	herbicidal effect rating, C: oval-leafed pondweed (oval-leafed pondweed)	herbicidal effect on F: southern crabgrass (southern crabgrass; [7])	herbicidal effect on G: green foxtail (green foxtail; [7])	herbicidal effect on H: barnyard grass (barnyard grass [1]; [7])	herbicidal effect on I: wild oat (wild oat; [7])	herbicidal effect on J: blackgrass (blackgrass; [7])	herbicidal effect on M: velvetleaf (velvetleaf; [7])	herbicidal effect on N: redroot pigweed (redroot pigweed [2]; [7])	herbicidal effect on R: persian speedwell (persian speedwell [3]; [7])	H: barnyard grass, herbicidal effect (criteria 0-5) (barnyard grass [4]; [8])	L: windgrass, herbicidal effect (criteria 0-5) (windgrass; [8])	N: redroot pigweed, herbicidal effect (criteria 0-5) (redroot pigweed [5])	P: chickweed, herbicidal effect (criteria 0-5) (chickweed)	R: persian speedwell, herbicidal effect (criteria 0-5) (persian speedwell [6]; [8])	herbicidal effect rating, F: southern crabgrass (southern crabgrass)	herbicidal effect rating, G: green foxtail (green foxtail)	herbicidal effect rating, H: barnyard grass (barnyard grass [1])	herbicidal effect rating, I: wild oat (wild oat)	also measured
Cc1ccccc1C(=O)Oc1c(C)nn(C)c(=O)c1-c1c(-c2ccc(OC(F)F)cc2)sc2ccc(F)cc12 [2-285]	3 (Herbicidal rate of 40% or more and less than 70%)	3 (Herbicidal rate of 40% or more and less than 70%)	0 (Herbicidal rate of 5% or less (almost no effect))	0 (Herbicidal rate of 5% or less (almost no effect))	0 (Herbicidal rate of 5% or less (almost no effect))	0 (Herbicidal rate of 5% or less (almost no effect))	0 (Herbicidal rate of 5% or less (almost no effect))	0 (Herbicidal rate of 5% or less (almost no effect))	0 (Herbicidal rate of 5% or less (almost no effect))	0 (Herbicidal rate of 5% or less (almost no effect))	3 (Herbicidal rate of 40% or more and less than 70%)	4 (Herbicidal rate of 70% or more and less than 90%)	0 (Herbicidal rate of 5% or less (almost no effect))	5 (Herbicidal rate of 90% or more (almost completely withered))	5 (Herbicidal rate of 90% or more (almost completely withered))	5 (Herbicidal rate of 90% or more (almost completely withered))	–	–	–	–	–
C#CCOc1ccc(-c2sc3ccc(F)cc3c2-c2c(OCOCCOC)c(C)nn(C)c2=O)cc1 [2-055]	0 (Herbicidal rate of 5% or less (almost no effect))	3 (Herbicidal rate of 40% or more and less than 70%)	3 (Herbicidal rate of 40% or more and less than 70%)	–	–	–	–	–	–	–	–	–	–	–	–	–	1 (Herbicidal rate of 5% or more and less than 20%)	4 (Herbicidal rate of 70% or more and less than 90%)	3 (Herbicidal rate of 40% or more and less than 70%)	0 (Herbicidal rate of 5% or less (almost no effect))	herbicidal effect rating, J: blackgrass (blackgrass): 0 (Herbicidal rate of 5% or less (almost no effect)); herbicidal effect rating, M: velvetleaf (velvetleaf): 3 (Herbicidal rate of 40% or more and less than 70%); herbicidal effect rating, N: redroot pigweed (redroot pigweed [2]): 4 (Herbicidal rate of 70% or more and less than 90%); herbicidal effect rating, R: persian speedwell (persian speedwell [3]): 5 (Herbicidal rate of 90% or more (almost completely withered)); herbicidal effect on H: barnyard grass (barnyard grass [4]; [9]): 4 (Herbicidal rate of 70% or more and less than 90%); herbicidal effect on L: windgrass (windgrass; [9]): 0 (Herbicidal rate of 5% or less (almost no effect)); herbicidal effect on N: redroot pigweed (redroot pigweed [5]; 320 g/ha): 5 (Herbicidal rate of 90% or more (almost completely withered)); herbicidal effect on P: chickweed (chickweed; 320 g/ha): 5 (Herbicidal rate of 90% or more (almost completely withered)); herbicidal effect on R: persian speedwell (persian speedwell [6]; [9]): 5 (Herbicidal rate of 90% or more (almost completely withered))
Cc1nn(C)c(=O)c(-c2c(-c3ccc(OC4CC4)cc3)sc3ccc(F)cc23)c1O [2-217]	3 (Herbicidal rate of 40% or more and less than 70%)	3 (Herbicidal rate of 40% or more and less than 70%)	0 (Herbicidal rate of 5% or less (almost no effect))	–	–	–	–	–	–	–	–	–	–	–	–	–	–	–	–	–	F: southern crabgrass, herbicidal effect rating (southern crabgrass; [7]): 4 (Herbicidal rate of 70% or more and less than 90%); G: green foxtail, herbicidal effect rating (green foxtail; [7]): 1 (Herbicidal rate of 5% or more and less than 20%); H: barnyard grass, herbicidal effect rating (barnyard grass [1]; [7]): 5 (Herbicidal rate of 90% or more (almost completely withered)); I: wild oat, herbicidal effect rating (wild oat; [7]): 0 (Herbicidal rate of 5% or less (almost no effect)); J: blackgrass, herbicidal effect rating (blackgrass; [7]): 0 (Herbicidal rate of 5% or less (almost no effect)); M: velvetleaf, herbicidal effect rating (velvetleaf; [7]): 1 (Herbicidal rate of 5% or more and less than 20%); N: redroot pigweed, herbicidal effect rating (redroot pigweed [2]; [7]): 4 (Herbicidal rate of 70% or more and less than 90%); R: persian speedwell, herbicidal effect rating (persian speedwell [3]; [7]): 4 (Herbicidal rate of 70% or more and less than 90%); herbicidal effect on H: barnyard grass (criteria 0-5) (barnyard grass [4]; [9]): 5 (Herbicidal rate of 90% or more (almost completely withered)); herbicidal effect on L: windgrass (criteria 0-5) (windgrass; [9]): 5 (Herbicidal rate of 90% or more (almost completely withered)); herbicidal effect on N: redroot pigweed (criteria 0-5) (redroot pigweed [5]; 320 g/ha): 5 (Herbicidal rate of 90% or more (almost completely withered)); herbicidal effect on P: chickweed (criteria 0-5) (chickweed; 320 g/ha): 5 (Herbicidal rate of 90% or more (almost completely withered)); herbicidal effect on R: persian speedwell (criteria 0-5) (persian speedwell [6]; [9]): 5 (Herbicidal rate of 90% or more (almost completely withered))
CCCC(=O)Oc1c(C)nn(C)c(=O)c1-c1c(-c2ccc(SC(C)C)cc2)sc2ccc(F)cc12 [2-253]	3 (Herbicidal rate of 40% or more and less than 70%)	3 (Herbicidal rate of 40% or more and less than 70%)	3 (Herbicidal rate of 40% or more and less than 70%)	0 (Herbicidal rate of 5% or less (almost no effect))	0 (Herbicidal rate of 5% or less (almost no effect))	1 (Herbicidal rate of 5% or more and less than 20%)	0 (Herbicidal rate of 5% or less (almost no effect))	0 (Herbicidal rate of 5% or less (almost no effect))	1 (Herbicidal rate of 5% or more and less than 20%)	5 (Herbicidal rate of 90% or more (almost completely withered))	2 (Herbicidal rate of 20% or more and less than 40%)	5 (Herbicidal rate of 90% or more (almost completely withered))	3 (Herbicidal rate of 40% or more and less than 70%)	5 (Herbicidal rate of 90% or more (almost completely withered))	5 (Herbicidal rate of 90% or more (almost completely withered))	5 (Herbicidal rate of 90% or more (almost completely withered))	–	–	–	–	–
CCCCCOc1ccc(-c2sc3ccc(F)cc3c2-c2c(OC(=O)CCC)c(C)nn(C)c2=O)cc1 [2-038]	2 (Herbicidal rate of 20% or more and less than 40%)	0 (Herbicidal rate of 5% or less (almost no effect))	0 (Herbicidal rate of 5% or less (almost no effect))	–	–	–	–	–	–	–	–	–	–	–	–	–	0 (Herbicidal rate of 5% or less (almost no effect))	0 (Herbicidal rate of 5% or less (almost no effect))	0 (Herbicidal rate of 5% or less (almost no effect))	0 (Herbicidal rate of 5% or less (almost no effect))	herbicidal effect rating, J: blackgrass (blackgrass): 0 (Herbicidal rate of 5% or less (almost no effect)); herbicidal effect rating, M: velvetleaf (velvetleaf): 0 (Herbicidal rate of 5% or less (almost no effect)); herbicidal effect rating, N: redroot pigweed (redroot pigweed [2]): 3 (Herbicidal rate of 40% or more and less than 70%); herbicidal effect rating, R: persian speedwell (persian speedwell [3]): 4 (Herbicidal rate of 70% or more and less than 90%); effect on barnyard grass (H) (barnyard grass [4]; [10]): 0 (Herbicidal rate of 5% or less (almost no effect)); effect on windgrass (L) (windgrass; [10]): 0 (Herbicidal rate of 5% or less (almost no effect)); effect on persian speedwell (R) (persian speedwell [6]; [10]): 5 (Herbicidal rate of 90% or more (almost completely withered))
